Measurements as given in ChEMBL document CHEMBL3826966, “A chromatography-free isolation of rohitukine from leaves of Dysoxylum binectariferum: Evaluation for in vitro cytotoxicity, Cdk inhibition and physicochemical properties” (Bioorg Med Chem Lett, 2016).
pIC50: −log10 of the molar value.

Tests used:
[1] = molecular target: Protein kinase C zeta type (Homo sapiens) (UniProt Q05513); experiment: Inhibition of human PKCzeta (2 to 592 residues) assessed as remaining enzyme activity at 50 uM after 30 mins by 33P-ATP filter-binding assay
Sequence of Protein kinase C zeta type (Homo sapiens) (Q05513 whole entry, the tested form may be a part): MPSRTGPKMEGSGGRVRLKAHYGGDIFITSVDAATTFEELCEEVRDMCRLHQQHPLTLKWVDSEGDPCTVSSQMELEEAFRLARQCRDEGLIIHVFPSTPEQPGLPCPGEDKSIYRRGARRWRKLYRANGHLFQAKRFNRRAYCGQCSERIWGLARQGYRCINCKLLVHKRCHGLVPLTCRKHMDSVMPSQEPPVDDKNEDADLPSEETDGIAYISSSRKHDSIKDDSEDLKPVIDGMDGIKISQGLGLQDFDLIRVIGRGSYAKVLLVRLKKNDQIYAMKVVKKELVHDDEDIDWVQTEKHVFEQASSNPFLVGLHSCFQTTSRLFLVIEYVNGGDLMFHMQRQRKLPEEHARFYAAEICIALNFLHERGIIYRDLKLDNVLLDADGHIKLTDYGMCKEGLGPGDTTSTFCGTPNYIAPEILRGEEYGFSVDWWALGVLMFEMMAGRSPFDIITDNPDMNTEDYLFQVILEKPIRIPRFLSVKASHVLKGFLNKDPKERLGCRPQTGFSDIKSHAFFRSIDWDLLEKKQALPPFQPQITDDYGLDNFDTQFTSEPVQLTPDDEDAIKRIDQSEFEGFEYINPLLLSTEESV

[2] = molecular target: Phosphorylase kinase (Homo sapiens) (UniProt P15735+P46020+P46019+Q93100+Q16816); experiment: Inhibition of human PHK assessed as remaining enzyme activity at 50 uM after 30 mins by 33P-ATP filter-binding assay; type: protein-complex assay
[3] = molecular target: Death-associated protein kinase 1 (Homo sapiens) (UniProt P53355); experiment: Inhibition of human DAPK1 (1 to 363) assessed as remaining enzyme activity at 50 uM after 30 mins by 33P-ATP filter-binding assay
[4] = molecular target: MAP/microtubule affinity-regulating kinase 3 (Homo sapiens) (UniProt P27448); experiment: Inhibition of human MARK3 (2 to 729 residues) assessed as remaining enzyme activity at 50 uM after 30 mins by 33P-ATP filter-binding assay
Sequence of MAP/microtubule affinity-regulating kinase 3 (Homo sapiens) (P27448 whole entry, looked up, the tested form may be a part): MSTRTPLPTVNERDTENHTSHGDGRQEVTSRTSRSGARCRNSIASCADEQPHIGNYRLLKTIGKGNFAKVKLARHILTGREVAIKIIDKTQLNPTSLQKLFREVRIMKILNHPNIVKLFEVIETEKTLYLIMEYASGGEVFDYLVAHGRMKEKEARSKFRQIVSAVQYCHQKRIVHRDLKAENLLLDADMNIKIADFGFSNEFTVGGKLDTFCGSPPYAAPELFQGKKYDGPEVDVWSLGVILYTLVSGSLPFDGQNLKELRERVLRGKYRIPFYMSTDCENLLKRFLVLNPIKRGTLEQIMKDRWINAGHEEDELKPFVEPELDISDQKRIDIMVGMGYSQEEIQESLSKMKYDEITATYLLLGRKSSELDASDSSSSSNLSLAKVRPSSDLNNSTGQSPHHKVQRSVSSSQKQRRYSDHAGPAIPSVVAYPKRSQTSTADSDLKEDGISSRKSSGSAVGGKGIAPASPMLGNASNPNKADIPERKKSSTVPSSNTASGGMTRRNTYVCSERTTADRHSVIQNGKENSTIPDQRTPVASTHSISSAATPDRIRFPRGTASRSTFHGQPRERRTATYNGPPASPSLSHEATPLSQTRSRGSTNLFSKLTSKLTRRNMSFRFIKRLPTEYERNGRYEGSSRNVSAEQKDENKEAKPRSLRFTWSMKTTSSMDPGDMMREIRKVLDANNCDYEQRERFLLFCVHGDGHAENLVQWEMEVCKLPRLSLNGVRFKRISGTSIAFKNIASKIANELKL

[5] = molecular target: Testis-specific serine/threonine-protein kinase 1 (Homo sapiens) (UniProt Q9BXA7); experiment: Inhibition of human TSSK1 (1 to 367 residues) assessed as remaining enzyme activity at 50 uM after 30 mins by 33P-ATP filter-binding assay
Sequence of Testis-specific serine/threonine-protein kinase 1 (Homo sapiens) (Q9BXA7 whole entry, the tested form may be a part): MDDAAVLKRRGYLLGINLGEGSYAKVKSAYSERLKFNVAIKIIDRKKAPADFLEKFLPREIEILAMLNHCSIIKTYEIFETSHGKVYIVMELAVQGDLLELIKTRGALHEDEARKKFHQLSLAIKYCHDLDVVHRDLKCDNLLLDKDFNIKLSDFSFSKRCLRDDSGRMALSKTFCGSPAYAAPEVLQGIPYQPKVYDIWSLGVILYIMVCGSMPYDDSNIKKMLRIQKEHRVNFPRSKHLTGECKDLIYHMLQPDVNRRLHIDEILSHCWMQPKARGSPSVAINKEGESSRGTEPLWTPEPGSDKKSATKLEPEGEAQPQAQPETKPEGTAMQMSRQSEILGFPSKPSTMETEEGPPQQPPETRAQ

[6] = molecular target: Serine/threonine-protein kinase Nek2 (Homo sapiens) (UniProt P51955); experiment: Inhibition of human NEK2a (1 to 445 residues) assessed as remaining enzyme activity at 50 uM after 30 mins by 33P-ATP filter-binding assay
[7] = molecular target: Homeodomain-interacting protein kinase 2 (Homo sapiens) (UniProt Q9H2X6); experiment: Inhibition of human HIPK2 (165 to 564 residues) assessed as remaining enzyme activity at 50 uM after 30 mins by 33P-ATP filter-binding assay
Sequence of Homeodomain-interacting protein kinase 2 (Homo sapiens) (Q9H2X6 whole entry, looked up, the tested form may be a part): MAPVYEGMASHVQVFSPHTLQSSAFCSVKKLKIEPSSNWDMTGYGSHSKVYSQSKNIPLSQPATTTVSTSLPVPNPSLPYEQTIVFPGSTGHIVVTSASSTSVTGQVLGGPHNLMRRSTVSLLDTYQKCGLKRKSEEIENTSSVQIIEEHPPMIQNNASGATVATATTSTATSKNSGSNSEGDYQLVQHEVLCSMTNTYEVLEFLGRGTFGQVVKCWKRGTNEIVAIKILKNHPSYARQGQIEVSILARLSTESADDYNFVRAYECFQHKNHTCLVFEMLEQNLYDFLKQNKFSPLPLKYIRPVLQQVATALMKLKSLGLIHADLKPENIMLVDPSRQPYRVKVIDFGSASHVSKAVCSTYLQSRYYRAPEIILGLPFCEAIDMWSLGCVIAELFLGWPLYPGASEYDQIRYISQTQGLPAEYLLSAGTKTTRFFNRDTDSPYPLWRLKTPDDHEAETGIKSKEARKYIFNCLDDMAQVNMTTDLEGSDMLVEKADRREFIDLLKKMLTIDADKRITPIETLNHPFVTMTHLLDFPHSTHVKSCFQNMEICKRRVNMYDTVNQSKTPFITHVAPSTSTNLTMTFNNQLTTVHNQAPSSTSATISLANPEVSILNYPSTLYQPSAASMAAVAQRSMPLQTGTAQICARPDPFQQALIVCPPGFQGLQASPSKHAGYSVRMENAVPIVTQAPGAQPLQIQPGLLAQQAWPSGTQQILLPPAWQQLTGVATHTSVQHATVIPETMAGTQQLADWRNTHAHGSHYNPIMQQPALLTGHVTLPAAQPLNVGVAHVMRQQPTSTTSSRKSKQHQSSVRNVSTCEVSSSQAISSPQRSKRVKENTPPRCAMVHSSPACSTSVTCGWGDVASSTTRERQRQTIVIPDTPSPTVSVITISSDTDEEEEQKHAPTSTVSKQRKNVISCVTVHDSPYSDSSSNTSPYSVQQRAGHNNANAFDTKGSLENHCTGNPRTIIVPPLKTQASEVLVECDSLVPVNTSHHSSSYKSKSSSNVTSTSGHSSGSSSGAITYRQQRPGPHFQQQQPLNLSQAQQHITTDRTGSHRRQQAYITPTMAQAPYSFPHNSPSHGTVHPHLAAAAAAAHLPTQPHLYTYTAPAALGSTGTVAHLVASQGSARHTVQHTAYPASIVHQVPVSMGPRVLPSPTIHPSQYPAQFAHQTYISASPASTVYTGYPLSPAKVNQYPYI

[8] = molecular target: Dual specificity protein kinase CLK2 (Homo sapiens) (UniProt P49760); experiment: Inhibition of human CLK2 (138 to 499 residues) assessed as remaining enzyme activity at 50 uM after 30 mins by 33P-ATP filter-binding assay
[9] = molecular target: Serine/threonine-protein kinase 3 (Homo sapiens) (UniProt Q13188); experiment: Inhibition of human MST2 (2 to 491 residues) assessed as remaining enzyme activity at 50 uM after 30 mins by 33P-ATP filter-binding assay
Sequence of Serine/threonine-protein kinase 3 (Homo sapiens) (Q13188 whole entry, the tested form may be a part): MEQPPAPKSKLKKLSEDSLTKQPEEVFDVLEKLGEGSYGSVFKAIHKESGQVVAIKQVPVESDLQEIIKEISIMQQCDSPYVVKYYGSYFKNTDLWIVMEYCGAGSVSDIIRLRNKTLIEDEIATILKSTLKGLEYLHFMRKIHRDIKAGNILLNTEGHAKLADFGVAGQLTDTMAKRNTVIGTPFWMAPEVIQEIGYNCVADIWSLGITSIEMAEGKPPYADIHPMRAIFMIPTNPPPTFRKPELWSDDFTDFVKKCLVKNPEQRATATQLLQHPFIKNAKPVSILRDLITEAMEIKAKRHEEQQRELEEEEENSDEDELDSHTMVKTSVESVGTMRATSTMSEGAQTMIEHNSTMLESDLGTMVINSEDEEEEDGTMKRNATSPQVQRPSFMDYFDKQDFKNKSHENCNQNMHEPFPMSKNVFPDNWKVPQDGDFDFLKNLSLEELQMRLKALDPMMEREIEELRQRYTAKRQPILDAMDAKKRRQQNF

[10] = molecular target: Mitogen-activated protein kinase kinase kinase 11 (Homo sapiens) (UniProt Q16584); experiment: Inhibition of human MLK3 (96 to 386 residues) assessed as remaining enzyme activity at 50 uM after 30 mins by 33P-ATP filter-binding assay
Sequence of Mitogen-activated protein kinase kinase kinase 11 (Homo sapiens) (Q16584 whole entry, looked up, the tested form may be a part): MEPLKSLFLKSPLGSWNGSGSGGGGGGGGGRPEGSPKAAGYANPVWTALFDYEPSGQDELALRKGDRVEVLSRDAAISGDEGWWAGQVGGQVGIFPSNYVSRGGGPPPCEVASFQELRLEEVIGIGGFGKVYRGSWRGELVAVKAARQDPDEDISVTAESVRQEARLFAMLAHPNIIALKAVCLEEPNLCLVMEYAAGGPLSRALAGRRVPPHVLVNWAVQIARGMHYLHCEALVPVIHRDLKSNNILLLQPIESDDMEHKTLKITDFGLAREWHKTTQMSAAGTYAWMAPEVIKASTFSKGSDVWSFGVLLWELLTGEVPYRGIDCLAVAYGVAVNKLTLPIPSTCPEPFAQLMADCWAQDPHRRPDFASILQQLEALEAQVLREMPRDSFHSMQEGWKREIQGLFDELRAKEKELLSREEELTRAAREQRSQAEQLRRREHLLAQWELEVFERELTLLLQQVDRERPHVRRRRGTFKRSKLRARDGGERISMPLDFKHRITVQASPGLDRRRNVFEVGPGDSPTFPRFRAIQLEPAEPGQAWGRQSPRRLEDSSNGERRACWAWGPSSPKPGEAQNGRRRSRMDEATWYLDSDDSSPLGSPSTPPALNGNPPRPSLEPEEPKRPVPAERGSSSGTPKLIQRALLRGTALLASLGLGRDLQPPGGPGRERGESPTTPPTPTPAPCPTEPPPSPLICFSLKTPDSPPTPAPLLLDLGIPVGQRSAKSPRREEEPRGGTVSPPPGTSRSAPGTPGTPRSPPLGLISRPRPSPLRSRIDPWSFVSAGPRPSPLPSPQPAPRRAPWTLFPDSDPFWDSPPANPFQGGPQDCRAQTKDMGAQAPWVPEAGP

[11] = molecular target: Receptor-interacting serine/threonine-protein kinase 2 (Homo sapiens) (UniProt O43353); experiment: Inhibition of human RIPK2 (2 to 311 residues) assessed as remaining enzyme activity at 50 uM after 30 mins by 33P-ATP filter-binding assay
[12] = molecular target: Serine/threonine-protein kinase OSR1 (Homo sapiens) (UniProt O95747); experiment: Inhibition of human OSR1 assessed as remaining enzyme activity at 50 uM after 30 mins by 33P-ATP filter-binding assay
[13] = molecular target: Serine/threonine-protein kinase 16 (Homo sapiens) (UniProt O75716); experiment: Inhibition of human MPSK1 (1 to 305 residues) assessed as remaining enzyme activity at 50 uM after 30 mins by 33P-ATP filter-binding assay
[14] = molecular target: Proto-oncogene tyrosine-protein kinase Src (Homo sapiens) (UniProt P12931); experiment: Inhibition of human Src (1 to 536 residues) assessed as remaining enzyme activity at 50 uM after 30 mins by 33P-ATP filter-binding assay
Sequence of Proto-oncogene tyrosine-protein kinase Src (Homo sapiens) (P12931 2-536 limits assumed): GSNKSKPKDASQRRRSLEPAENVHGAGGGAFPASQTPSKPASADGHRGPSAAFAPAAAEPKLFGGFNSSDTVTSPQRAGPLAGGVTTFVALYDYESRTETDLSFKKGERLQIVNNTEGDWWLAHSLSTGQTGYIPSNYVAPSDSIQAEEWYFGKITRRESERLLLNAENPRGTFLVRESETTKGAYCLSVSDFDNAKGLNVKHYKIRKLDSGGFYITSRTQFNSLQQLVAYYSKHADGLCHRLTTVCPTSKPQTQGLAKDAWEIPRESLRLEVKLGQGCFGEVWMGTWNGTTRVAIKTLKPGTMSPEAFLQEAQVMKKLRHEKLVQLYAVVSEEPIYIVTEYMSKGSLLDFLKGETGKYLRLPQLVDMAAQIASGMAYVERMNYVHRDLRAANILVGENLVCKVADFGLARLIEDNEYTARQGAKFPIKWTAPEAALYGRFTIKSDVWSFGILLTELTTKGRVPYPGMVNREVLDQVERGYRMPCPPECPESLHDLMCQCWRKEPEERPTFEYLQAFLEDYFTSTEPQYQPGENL

[15] = molecular target: Ephrin type-B receptor 4 (Homo sapiens) (UniProt P54760); experiment: Inhibition of human EPHB4 (561 to 997 residues) assessed as remaining enzyme activity at 50 uM after 30 mins by 33P-ATP filter-binding assay
[16] = Cell cycle arrest in human HL60 cells assessed as accumulation at G1 phase at 10 uM (reference value: 59 %); type: functional, cell-based; conditions: HL-60
CDK9/cyclin T1 = CDK9/cyclin T1 (Homo sapiens, UniProt P50750); experiment: Inhibition of human Cdk9/T1 using YSPTSPSYSPTSPSYSPTSPKKK peptide as substrate after 30 mins by 33P-ATP filter-binding assay; type: protein-complex assay
[17] = Cytotoxicity against human MOLT4 cells assessed as cell growth inhibition after 48 hrs by MTT assay; type: functional; conditions: MOLT-4, 48 h
[18] = Cytotoxicity against human THP1 cells assessed as cell growth inhibition after 48 hrs by MTT assay; type: functional; conditions: THP-1, 48 h
[19] = Cytotoxicity against human DU145 cells assessed as cell growth inhibition after 48 hrs by MTT assay; type: functional; conditions: DU-145, 48 h
[20] = Cytotoxicity against human SF295 cells assessed as cell growth inhibition after 48 hrs by MTT assay; type: functional; conditions: SF-295, 48 h
[21] = Cytotoxicity against human SF539 cells assessed as cell growth inhibition after 48 hrs by MTT assay; type: functional; conditions: SF-539, 48 h
[22] = Cytotoxicity against human FR2 cells assessed as cell growth inhibition after 48 hrs by MTT assay; type: cell-based
[23] = molecular target: CDK2/Cyclin A2 (Homo sapiens) (UniProt P24941+P20248); experiment: Inhibition of human Cdk2/cyclin A at 0.5 uM using Histone H1 substrate after 30 mins by 33P-ATP filter-binding assay; type: protein-complex assay
[24] = molecular target: Mitogen-activated protein kinase 8 (Homo sapiens) (UniProt P45983); experiment: Inhibition of human JNK1 (1 to 384 residues) assessed as remaining enzyme activity at 50 uM after 30 mins by 33P-ATP filter-binding assay
[25] = molecular target: Mitogen-activated protein kinase 10 (Homo sapiens) (UniProt P53779); experiment: Inhibition of human JNK3 (40 to 422 residues) assessed as remaining enzyme activity at 50 uM after 30 mins by 33P-ATP filter-binding assay
[26] = molecular target: Mitogen-activated protein kinase 15 (Homo sapiens) (UniProt Q8TD08); experiment: Inhibition of human ERK8 (2 to 544 residues) assessed as remaining enzyme activity at 50 uM after 30 mins by 33P-ATP filter-binding assay

- Activity [1]: 118%
- Activity [2]: 23%
- Activity [4]: 41%
- Activity [5]: 81%
- Activity [6]: 89%
- Activity [7]: 76%
- Activity [8]: 45%
- Activity [9]: 46%
- Activity [10]: 58%
- Activity [11]: 63%
- Activity [12]: 93%
- Activity [13]: 87%
- Activity [14]: 61%
- Activity [15]: 84%
- pIC50 (CDK9/cyclin T1): 6.52
- inhibition [23]: 10%
- Activity [24]: 96%
- Activity [25]: 87%
Compound: Cc1cc(=O)c2c(O)cc(O)c([C@H]3CCN(C)C[C@H]3O)c2o1 [ROHITUKINE]
- Activity [3]: 96%
- Activity [16]: 48%
- GI50 [17]: 12 µM
- GI50 [18]: 28 µM
- GI50 [19]: 26 µM
- GI50 [20]: 27 µM
- GI50 [21]: 30 µM
- GI50 at 48 h [22]: > 50 µM
- Activity [26]: 19%
